Laboratory results from US20100159528A1, “POLYMERASE STABILIZATION” (GE HEALTHCARE BIO-SCIENCE CORP., priority 2007, published 2010).

Key:
Tba DNA polymerase = test: PCR assay for detergents screening: amplification of a 1 kb λDNA fragment with Tba purified and stored without detergents; type: biochemical, Thermococcus barossii; conditions: for % Activity relative to TWEEN ® 20: PCR yield of 1 kb λDNA fragment, Agilent Bioanalyzer; for PCR yield higher than the positive control (TWEEN® 20): PCR reactions containing the detergent; for stabilization and activation of DNA polymerase (in words): detergent added into PCR reaction mix at 0.01% and 0.1% (FIG. 2)
Procedure: In this experiment, two lots of DNA polymerase that were purified and stored in buffers with/without detergents were tested. Each of the tested DNA polymerase was first diluted into 20 folds in buffers with and without of TWEEN® 20, respectively, prior to PCR and then equal units of enzyme was added into PCR mix. PCRs were performed in 25 μl volume in with 200 nM of forward and reverse primers, 200 μM dNTP, 1.0 unit of Tba and 1.0 ng template DNA. 1 kb human genomic DNA and 1 kb lambda DNA fragments were amplified. Reaction buffer contains 10 mM Tris-HCl, pH 9.0, 50 mM KCl, and 1.5 mM MgCl2. The PCR reaction was started by 2 minutes initial heating at 95° C., followed by 35 cycles with 95° C. for 30 s, 55° C. 30 s, and 72° C. for 60 s, and then final extension at 72° C. for 5 min. The PCR products were analyzed with Agilent Bioanalyzer.
The PCR assay was used for the detergents screening. The tested detergents were first dissolved in molecular biology grade water and neutralized to pH7 with a sodium hydroxide solution to make final concentration of 5% (W/V) stock solutions. The 5% detergent solutions were then used for the screening by either adding them into enzyme dilution buffer or spiked into PCR mix. The amplification of a 1 kb λDNA fragment was used test the effect of each detergent on the Tba stability and activity. The PCR conditions are the same as described earlier. Tba that was purified and stored in the absence of detergents was used for the tests. The tested detergents were spiked into the PCR reactions at a final concentration of 0.01%, 0.05%, and 0.1%, respectively. The PCR yields were quantitated by Agilent Bioanalyzer.

DNA polymerase [1] = conditions: for effect of high detergent concentration on stability and activity: Concentrations above 0.5% (W/V)
Procedure: For ♦, each detergent is present at the indicated amount.
(§1) The stabilization functions of these two detergents are tested for δJSER DNA polymerase as well. […] In addition, the stabilization effects of these two detergents on DNA polymerase were also tested in the activity assay and thermostability assay.

DNA polymerase [2] = test system: DNA polymerase
Procedure: An enzyme will have a maximal activity rate, which is preferably measured under conditions of saturating substrate concentration and at a selected set of environmental conditions including temperature, pH and salt concentration. For the DNA polymerases described herein, preferred conditions for measuring activity are 25 mM TAPS (tris-hydroxymethyl 25 methylaminopropane sulfonic acid) buffer, pH 9.3 (measured at 25° C.), 50 mM KCl, 2 mM MgCl2, 1 mM 2- mercaptoethanol, 0.2 mM each of dGTP, dCTP, dTTP, 0.2 mM [α-33P]-dATP (0.05-0.1 Ci/mmol) and 0.4 mg/mL activated salmon sperm DNA. The reaction is allowed to proceed at 74° C. Exemplary methods for measuring the DNA polymerase activity of an enzyme under such 30 conditions are provided hereinafter.
as §1

δJSER DNA polymerase = test: Stabilization/activation test for δJSER DNA polymerase; type: biochemical, JSER; conditions: compared with the effect on Tba
Procedure: as §1

[3] = Detergent Conc. 0.01% in PCR reaction
[4] = Detergent Conc. 0.05% in PCR reaction
[5] = Detergent Conc. 0.10% in PCR reaction

| Substance | % Activity relative to TWEEN ® 20 (Tba DNA polymerase; [3]) [%] | % Activity relative to TWEEN ® 20 (Tba DNA polymerase; [4]) [%] | % Activity relative to TWEEN ® 20 (Tba DNA polymerase; [5]) [%] | PCR yield higher than the positive control (TWEEN® 20) (Tba DNA polymerase) | stabilization and activation of DNA polymerase (in words) (Tba DNA polymerase) | stabilization effect in the thermostability test compared with TWEEN® 20 (DNA polymerase [1]) | DNA polymerase remaining active after heating (DNA polymerase [1]; 95° C., 15 minutes, 1x PCR buffer, compared with NP40 and TWEEN® 20 (FIG. 3)) | effect of high detergent concentration on stability and activity (DNA polymerase [1]) | stabilization effect in the activity assay compared with TWEEN® 20 (DNA polymerase [2]) | activation of δJSER DNA polymerase (δJSER DNA polymerase) | formation of PCR products depending on detergent in the enzyme dilution buffer (Tba DNA polymerase; Tba diluted 20 fold in buffer with/without TWEEN® 20, 1 kb λDNA and human genomic DNA fragments (FIG. 1)) |
| --- | --- | --- | --- | --- | --- | --- | --- | --- | --- | --- | --- |
| polyoxyethylene nonylphenol ether, phosphate [RHODAFAC™ RE-960] | 130.7 | 165.8 | 167.1 | about 30% | work very well in stabilization and activation of DNA polymerase | same or better stabilization effects | more DNA polymerase remains active | do not improve stability but do not decrease activity | same or better stabilization effects | same activation | – |
| TWEEN® 20 [reference compound] | – | – | – | – | – | – | – | – | – | – | PCR products were only obtained from the reactions that the enzymes were diluted in a buffer containing the detergent |
| polyoxyethylene tridecyl ether, phosphate [RHODAFAC™ RS-960] | 101.8 | 167.9 | 178.6 | about 30% | work very well in stabilization and activation of DNA polymerase | same or better stabilization effects | – | do not improve stability but do not decrease activity | same or better stabilization effects | same activation | – |
